As usually defined, the EC50 is the concentration giving half of the maximal effect.

These results are taken from patent US20240376114A1, “NUCLEAR TRANSPORT MODULATORS AND USES THEREOF” (Karyopharm Therapeutics Inc., priority 2011, published 2024).

Bounds are passed on as bounds.

A short description of this series: CellTiter 96 AQueous One Solution (MTS) cell proliferation assay. The series is classed as cell-based. Conditions: human, MM.1S multiple myeloma cells; MM.1S cells, 72 h treatment; read-out: Cytotoxicity [EC50]. From the text:
The CellTiter 96® AQueous One Solution cell proliferation assay (Promega) was used on MM.1S multiple myeloma cell line to study the cytotoxic and cytostatic properties of the compounds. The assay is based on the cleavage of the tetrazolium salt, MTS, in the presence of an electron-coupling reagent PES (phenazine ethosulfate). The MTS tetrazolium compound is bioreduced by cells into a colored formazan product that is soluble in tissue culture medium. This conversion is presumably accomplished by NADPH or NADH produced by dehydrogenase enzymes in metabolically active cells. Assays are performed by adding a small amount of the CellTiter 96® AQueous One solution reagent directly to culture wells, incubating for 1-4 hours and then recording the absorbance at 490 nm with a 96-well plate reader.
The cells were seeded at 5×10^3 to 1.5×10^4 cells (depending on cell type) in each well of a 96-well plate in 100 μL of fresh culture medium and adherent cells were allowed to attach overnight. The stock solutions of the compounds were diluted in cell culture medium to obtain eight concentrations of each drug, ranging from 1 nM to 30 μM and DMSO at less than 1% v/v was used as a negative control. The resulting drug solutions were transferred onto the cells. After 72 h of treatment, 20 μl of CellTiter 96® AQueous reagent was added into each well of the 96-well assay plates and the plate was incubated at 37° C. for 1-4 hours in a humidified, 5% CO2 atmosphere. Then the absorbance of each well was recorded at 490 nm using a 96-well plate reader. In most cases, the assay was performed in triplicate and the results were presented as half maximal inhibitory concentration (IC50). Optical density versus compound concentration was plotted and analyzed using non-linear regression equations (IDBS XLfit) and the IC50 for each compound was calculated.
In the case of `O=C(/C=C\n1ccc(-c2cc(C(F)(F)F)cc(C(F)(F)F)c2)n1)N1CC(F)(F)C1` [Compound 35, (Z)-3-(3-(3,5-bis(trifluoromethyl)phenyl)-1H-pyrazol-1-yl)-1-(3,3-difluoroazetidin-1-yl)prop-2-en-1-one], the 50% effective concentration (EC50) at 72 h is below 1000 nM.

In the case of `O=C(/C=C\n1cnc(-c2cc(C(F)(F)F)cc(C(F)(F)F)c2)n1)N1CCC(F)(F)CC1` [Example 6, (Z)-3-(3-(3,5-bis(trifluoromethyl)phenyl)-1H-1,2,4-triazol-1-yl)-1-(4,4-difluoropiperidin-1-yl)prop-2-en-1-one], the EC50 at 72 h is 1000 to 10000 nM.

Regarding `CN1CCC(CNC(=O)/C=C\n2cnc(-c3cc(C(F)(F)F)cc(C(F)(F)F)c3)n2)C1` (stereo not shown) [Compound 30, (Z)-3-(3-(3,5-bis(trifluoromethyl)phenyl)-1H-1,2,4-triazol-1-yl)-N-((1-methylpyrrolidin-3-yl)methyl)acrylamide], the EC50 at 72 h was below 1000 nM.

For the compound `O=C(/C=C\N1CCC(c2cc(C(F)(F)F)cc(C(F)(F)F)c2)C1)N1CC(F)(F)C1` (stereo not shown) [Compound 43, (Z)-3-(3-(3,5-bis(trifluoromethyl)phenyl)pyrrolidin-1-yl)-1-(3,3-difluoroazetidin-1-yl)prop-2-en-1-one], the half-maximal effective concentration (EC50) at 72 h is above 10000 nM.

With `Cc1ncc(CN(C)C(=O)/C=C\n2cnc(-c3cc(C(F)(F)F)cc(C(F)(F)F)c3)n2)cn1` [Compound 18, (Z)-3-(3-(3,5-bis(trifluoromethyl)phenyl)-1H-1,2,4-triazol-1-yl)-N-methyl-N-((2-methylpyrimidin-5-yl)methyl)acrylamide], the EC50 at 72 h is 1000 to 10000 nM.

As to `O=C(/C=C\n1cnc(-c2cc(C(F)(F)F)cc(C(F)(F)F)c2)n1)N1CCC2(CNC2)C1` [Compound 58, (Z)-3-(3-(3,5-bis(trifluoromethyl)phenyl)-1H-1,2,4-triazol-1-yl)-1-(2,6-diazaspiro[3.4]octan-6-yl)prop-2-en-1-one 2,2,2-trifluoroacetate], the concentration for a half-maximal effect (EC50) at 72 h was below 1000 nM.

With `O=C(/C=C\n1cnc(-c2cc(C(F)(F)F)cc(C(F)(F)F)c2)n1)N1CC2(CNC2)C1` [Compound 52, (Z)-3-(3-(3,5-bis(trifluoromethyl)phenyl)-1H-1,2,4-triazol-1-yl)-1-(2,6-diazaspiro[3.3]heptan-2-yl)prop-2-en-1-one 2,2,2-trifluoroacetate], the concentration giving a half-maximal response (EC50) at 72 h is below 1000 nM.

In the case of `O=C(O)C1CN(C(=O)/C=C\n2cnc(-c3cc(C(F)(F)F)cc(C(F)(F)F)c3)n2)C1` [Compound 55, (Z)-1-(3-(3-(3,5-bis(trifluoromethyl)phenyl)-1H-1,2,4-triazol-1-yl)acryloyl)azetidine-3-carboxylic acid], the EC50 at 72 h fell in the range of 1000 to 10000 nM.

For the compound `Cc1ncc(CNC(=O)/C=C\n2cnc(-c3cc(C(F)(F)F)cc(C(F)(F)F)c3)n2)cn1` [Compound 13, (Z)-3-(3-(3,5-bis(trifluoromethyl)phenyl)-1H-1,2,4-triazol-1-yl)-N-((2-methylpyrimidin-5-yl)methyl)acrylamide], the concentration for a half-maximal effect (EC50) at 72 h lay in the range of 1000 to 10000 nM.

For `Cc1ncc(CNC(=O)/C=C\n2cnc(-c3cc(C(F)(F)F)cc(C(F)(F)F)c3)n2)c(C)n1` [Compound 31, (Z)-3-(3-(3,5-bis(trifluoromethyl)phenyl)-1H-1,2,4-triazol-1-yl)-N-((2,4-dimethylpyrimidin-5-yl)methyl)acrylamide], the concentration for a half-maximal effect (EC50) at 72 h was below 1000 nM.

With `CN(C)CC1(F)CN(C(=O)/C=C\n2cnc(-c3cc(C(F)(F)F)cc(C(F)(F)F)c3)n2)C1` [Compound 63, (Z)-3-(3-(3,5-bis(trifluoromethyl)phenyl)-1H-1,2,4-triazol-1-yl)-1-(3-((dimethylamino)methyl)-3-fluoroazetidin-1-yl)prop-2-en-1-one], the EC50 at 72 h was below 1000 nM.

On to `O=C(/C=C\n1cnc(-c2cc(C(F)(F)F)nc(C(F)(F)F)c2)n1)N1CC(F)(F)C1` [Example 9, (Z)-3-(3-(2,6-bis(trifluoromethyl)pyridin-4-yl)-1H-1,2,4-triazol-1-yl)-1-(3,3-difluoroazetidin-1-yl)prop-2-en-1-one], for which the EC50 at 72 h is below 1000 nM.

On to `O=C(/C=C\n1cnc(-c2cc(C(F)(F)F)cc(C(F)(F)F)c2)n1)NC1CCc2ncccc21` (stereo not shown) [Compound 28, (Z)-3-(3-(3,5-bis(trifluoromethyl)phenyl)-1H-1,2,4-triazol-1-yl)-N-(6,7-dihydro-5H-cyclopenta[b]pyridin-5-yl)acrylamide], for which the EC50 at 72 h lay in the range of 1000 to 10000 nM.

Turning to `CN(Cc1cnco1)C(=O)/C=C\n1cnc(-c2cc(C(F)(F)F)cc(C(F)(F)F)c2)n1` [Compound 22, (Z)-3-(3-(3,5-bis(trifluoromethyl)phenyl)-1H-1,2,4-triazol-1-yl)-N-methyl-N-(oxazol-5-ylmethyl)acrylamide], the half-maximal effective concentration (EC50) at 72 h was in the range of 1000 to 10000 nM.

`O=C(/C=C\n1cnc(-c2cc(C(F)(F)F)cc(C(F)(F)F)c2)n1)NCC1CCCNC1` (stereo not shown) [Compound 19, (Z)-3-(3-(3,5-bis(trifluoromethyl)phenyl)-1H-1,2,4-triazol-1-yl)-N-(piperidin-3-ylmethyl)acrylamide]: the EC50 at 72 h is 1000 to 10000 nM.

For `O=C(/C=C\n1cnc(-c2cc(C(F)(F)F)cc(C(F)(F)F)c2)n1)N1CCC(F)(F)C1` [Compound 20, (Z)-3-(3-(3,5-bis(trifluoromethyl)phenyl)-1H-1,2,4-triazol-1-yl)-1-(3,3-difluoropyrrolidin-1-yl)prop-2-en-1-one], the EC50 at 72 h was below 1000 nM.

Consider `O=C(/C=C\n1cnc(-c2cc(O)cc(C(F)(F)F)c2)n1)N1CC(F)(F)C1` [Example 3, (Z)-1-(3,3-difluoroazetidin-1-yl)-3-(3-(3-hydroxy-5-(trifluoromethyl)phenyl)-1H-1,2,4-triazol-1-yl)prop-2-en-1-one], for which the 50% effective concentration (EC50) at 72 h is below 1000 nM.

On to `O=C(/C=C\n1cnc(-c2cc(C(F)(F)F)cc(C(F)(F)F)c2)c1)N1CC(F)(F)C1` [Compound 16, (Z)-3-(4-(3,5-bis(trifluoromethyl)phenyl)-1H-imidazol-1-yl)-1-(3,3-difluoroazetidin-1-yl)prop-2-en-1-one], for which the EC50 at 72 h is below 1000 nM.

With `O=C(/C=C\n1cnc(-c2cc(C(F)(F)F)cc(C(F)(F)F)c2)n1)N1CC(O)(C(F)(F)F)C1` [Compound 51, (Z)-3-(3-(3,5-bis(trifluoromethyl)phenyl)-1H-1,2,4-triazol-1-yl)-1-(3-hydroxy-3-(trifluoromethyl)azetidin-1-yl)prop-2-en-1-one], the half-maximal effective concentration (EC50) at 72 h was below 1000 nM.

With `CN1CCC(CNC(=O)/C=C\n2cnc(-c3cc(C(F)(F)F)cc(C(F)(F)F)c3)n2)CC1` [Compound 26, (Z)-3-(3-(3,5-bis(trifluoromethyl)phenyl)-1H-1,2,4-triazol-1-yl)-N-((1-methylpiperidin-4-yl)methyl)acrylamide], the concentration for a half-maximal effect (EC50) at 72 h was below 1000 nM.

In the case of `NC1C2CN(C(=O)/C=C\n3cnc(-c4cc(C(F)(F)F)cc(C(F)(F)F)c4)n3)CC12` (stereo not shown) [Compound 57, (Z)-1-(6-amino-3-azabicyclo[3.1.0]hexan-3-yl)-3-(3-(3,5-bis(trifluoromethyl)phenyl)-1H-1,2,4-triazol-1-yl)prop-2-en-1-one], the EC50 at 72 h was below 1000 nM.

Turning to `[2H]/C(=C/n1nc(-c2cc(C(F)(F)F)cc(C(F)(F)F)c2)nc1[2H])C(=O)N1CC(F)(F)C1` [Compound 40, D2-(Z)-3-(3-(3,5-bis(trifluoromethyl)phenyl)-1H-1,2,4-triazol-1-yl)-1-(3,3-difluoroazetidin-1-yl)prop-2-en-1-one], the EC50 at 72 h is below 1000 nM.

As for `O=C(/C=C\n1cnc(-c2cc(C(F)(F)F)cc(C(F)(F)F)c2)n1)N1CC(O)C1` [Compound 53, (Z)-3-(3-(3,5-bis(trifluoromethyl)phenyl)-1H-1,2,4-triazol-1-yl)-1-(3-hydroxyazetidine-1-yl)prop-2-en-1-one], the 50% effective concentration (EC50) at 72 h is below 1000 nM.

`COC(=O)C1(F)CN(C(=O)/C=C\n2cnc(-c3cc(C(F)(F)F)cc(C(F)(F)F)c3)n2)C1` [Compound 61, (Z)-methyl 1-(3-(3-(3,5-bis(trifluoromethyl)phenyl)-1H-1,2,4-triazol-1-yl)acryloyl)-3-fluoroazetidine-3-carboxylate]: the concentration giving a half-maximal response (EC50) at 72 h was below 1000 nM.

For the compound `N#CC1CN(C(=O)/C=C\n2cnc(-c3cc(C(F)(F)F)cc(C(F)(F)F)c3)n2)C1` [Compound 54, (Z)-1-(3-(3-(3,5-bis(trifluoromethyl)phenyl)-1H-1,2,4-triazol-1-yl)acryloyl)azetidine-3-carbonitrile], the EC50 at 72 h was below 1000 nM.

With `CCN(C(=O)/C=C\n1cnc(-c2cc(C(F)(F)F)cc(C(F)(F)F)c2)n1)C(C)c1cccnc1` (stereo not shown) [Example 10, (Z)-3-(3-(3,5-bis(trifluoromethyl)phenyl)-1H-1,2,4-triazol-1-yl)-N-ethyl-N-(1-(pyridin-3-yl)ethyl)acrylamide], the concentration giving a half-maximal response (EC50) at 72 h was in the range of 1000 to 10000 nM.

As to `O=C(/C=C\n1cnc(-c2cc(C(F)(F)F)cc(C(F)(F)F)c2)n1)N1CC(c2ccccn2)C1` [Compound 24, (Z)-3-(3-(3,5-bis(trifluoromethyl)phenyl)-1H-1,2,4-triazol-1-yl)-1-(3-(pyridin-2-yl)azetidin-1-yl)prop-2-en-1-one], the EC50 at 72 h is below 1000 nM.

In the case of `O=C(/C=C\n1cnc(-c2cc(C(F)(F)F)cc(C(F)(F)F)c2)n1)NCc1cncnc1` [Compound 14, (Z)-3-(3-(3,5-bis(trifluoromethyl)phenyl)-1H-1,2,4-triazol-1-yl)-N-(pyrimidin-5-ylmethyl)acrylamide], the EC50 at 72 h is below 1000 nM.
